This is an account of results in patent US20070155803A1, “Protease inhibitors” (ProZymex A/S, priority 2003, published 2007).

One experiment addresses T1, Human liver cathepsin H (Homo sapiens, UniProt P09668).
T1 construct: Human liver catheptin H (Enzyme System Products Cath-1; 25 μg); purchased Enzyme System Products Cath-1; host or cells: human liver
T1 sequence (P09668 98-335): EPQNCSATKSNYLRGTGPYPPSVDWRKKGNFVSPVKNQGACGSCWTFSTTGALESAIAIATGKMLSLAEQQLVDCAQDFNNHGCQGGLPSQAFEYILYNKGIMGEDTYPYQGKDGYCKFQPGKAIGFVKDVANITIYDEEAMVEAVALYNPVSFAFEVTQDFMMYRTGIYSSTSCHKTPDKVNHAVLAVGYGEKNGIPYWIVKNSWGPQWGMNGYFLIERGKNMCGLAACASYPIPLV
The experiment in a line: Human liver cathepsin H assay. The format is biochemical. As to the method: Human Liver Cathepsin H Assay
Using this assay, the selectivity of a compound of the invention for hDPP-I over human cathepsin H was determined, using a fluorogenic substrate.
Human liver catheptin H (Enzyme System Products Cath-1; 25 μg) was solubilized in 60 μL enzyme buffer (giving a stock with a concentration of 417 ng/μL). Enzyme stock (5 μL) was diluted with 1245 μL enzyme-buffer. Prior to running experiment 1 μL 0.5 M DTT/100 μL enzyme solution was added. Incubated for 5 minutes on ice, then added to reaction mixture.
ARG-AFC*2HBR (Enzyme System Products AF002; 10.6 mg) was dissolved in 1 mL DMSO, giving a 20 mM solution. Km for this substrate has been determined to be 27 μM
The assay was performed in 96-well plates. 50 μL assay buffer was added to the well followed by 25 μL reference inhibitor (cystatin; stock 1 mg/mL, diluted with assay buffer to give 10 nM in assay) or a compound of the invention (diluted with assay buffer to give 10 μM in the assay). Then 25 μL (40 ng) enzyme was added, and 1 min. later (at 37° C.), 100 μL ARG-AFC substrate (15 μM in the assay) was added. The excitation wavelength was 400 nm, and the emission was measured at 505 nm for 10-20 minutes at 37° C. […] In the software (SOFTmax Pro) used for data collection from the fluorometer (Molecular Devices: Gemini XS) it was ensured that the measured slopes were linear (R^2>0.99). […]

In another experiment the target is T2, CYP2D6 (Homo sapiens, UniProt P10635).
T2 construct: purchased PanVera Vivid CYP2D6 Cyan Screening Kit
T2 sequence (P10635 whole entry): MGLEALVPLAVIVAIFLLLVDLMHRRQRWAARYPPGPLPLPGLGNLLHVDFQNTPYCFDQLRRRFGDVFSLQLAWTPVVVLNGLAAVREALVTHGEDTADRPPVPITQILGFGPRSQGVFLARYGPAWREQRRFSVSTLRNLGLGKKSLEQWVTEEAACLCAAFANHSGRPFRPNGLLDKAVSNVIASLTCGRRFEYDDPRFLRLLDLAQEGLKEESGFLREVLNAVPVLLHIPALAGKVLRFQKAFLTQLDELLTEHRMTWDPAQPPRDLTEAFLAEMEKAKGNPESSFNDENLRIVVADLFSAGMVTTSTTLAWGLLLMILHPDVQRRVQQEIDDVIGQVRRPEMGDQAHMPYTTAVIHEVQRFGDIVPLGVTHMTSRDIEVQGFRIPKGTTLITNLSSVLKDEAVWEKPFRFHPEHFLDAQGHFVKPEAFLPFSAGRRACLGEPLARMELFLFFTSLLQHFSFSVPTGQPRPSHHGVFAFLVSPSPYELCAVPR
As to the kind of experiment: CYP2D6 assay (Vivid CYP2D6 Cyan Screening Kit). The format is in vitro ADME. To be noted: 20 μM cutoff; read-out: Metabolism: CYP enzymes (20 μM cutoff or IC50) CYP2D6. As to the method:
Tubes thawed on ice. 2× reaction buffer dispensed (room temperature) in two eppendorf tubes (for Mix A and Mix B).
Controls or compounds of the invention: Diluted to a concentration of 50 μM. Positive control compound: α-naphthoflavone.
Negative controls: DMSO and H2O.
Mix A: 485 μL reaction buffer, 10 μL regeneration system, 5 μL Baculosome reagent. Mixed gently and placed on ice.
Mix B: 88.5 μL reaction buffer, 1.5 μL substrate, 10 μL 10 mM NADP^+.
In a 96-well plate (Costar c-3904), 40 μL of 50 μM sample dispensed. 50 μl Mix A added. Incubated 20 min. at rt. Then, 10 μl of Mix B added. Fluorescence determined (Molecular Devices, SPECTRAmax Gemini EM): Ex: 409 nm, Em: 460 nm, at 37° C. for 20 min. (Automix: 5 s, top read.).
Following the procedure for CYP1A2, using the appropriate kits below, the effect of a compound of the invention on the other CYP enzymes was determined:
Vivid® CYP2D6 Cyan Screening Kit from PanVera.

Each structure is given as a SMILES string. Square brackets hold non-standard residues; d marks the D form. Peptide text beside a SMILES is read from it. Phe(3-F) = N[C@@H](Cc1cccc(F)c1)C(=O)O; hPhe = N[C@@H](CCc1ccccc1)C(=O)O; Abu = CC[C@H](N)C(=O)O; azaGly = NNC(=O)O

On to `CC[C@H](N)C(=O)NNC(=O)N[C@@H](CCc1ccccc1)C(=O)N[C@@H](Cc1cccc(F)c1)C(N)=O` [Example 11, 1-(2S-2-Aminobutanoyl)-4-[2S-N-[2S-3-(m-fluorophenyl)propan-2-yl-amide]-4-phenylbutan-2-yl-amide]semicarbazide] (H-[Abu][azaGly][hPhe][Phe(3-F)]-NH2), for which the “Inhibition of Cathepsin H (in words)” value on Human liver cathepsin H is given as “does not inhibit”. Further, the IC50 – broadly, the concentration that gives 50% inhibition – at Human liver cathepsin H (human liver cathepsin H, read-out: Secondary enzymatic screening (10 μM cutoff or IC50) Cathepsin H) was 3.2 µM; at CYP2D6, above 20 µM.
